# In US20090143279A1 (priority 2007, published 2009):
# Like-named read-outs stand apart in the source and are kept apart here.
# Experiments:
# nuOXPHOS transcripts = assay type: cell-based, mouse
# reactive oxygen species = assay type: cell-based, mouse
# cytochrome c = assay type: cell-based, mouse; details: for cyt c (composite Z-score): normalized score vs mock-treated (DMSO) wells
# OXPHOS gene expression = assay type: cell-based, mouse
# [1] = system: cellular dehydrogenase activity
# mtOXPHOS transcripts = assay type: cell-based, mouse
# [2] = system: mitochondrial membrane potential; assay type: cell-based, mouse
# [3] = Conc 20 μM, normalized score vs mock-treated (DMSO) wells
# [4] = composite Z-score vs mock-treated (DMSO) wells, concentration of each compound in μM
# [5] = normalized composite Z-score vs mock-treated (DMSO) wells, Conc 20 μM
# [6] = composite Z-score vs mock-treated (DMSO) wells, Conc 20 μM
# [7] = composite Z-score vs DMSO, Conc 20 μM
# [8] = 20 μM, composite Z-score vs DMSO
compound,measurement,setting,value
C=C1C2CC[C@@]3(C)[C@H](c4ccoc4)OC(=O)C[C@]13O[C@H]1C[C@H](OC(C)=O)C(C)(C)[C@H](CC(=O)OC)[C@@]21C,nucOX (composite Z-score),nuOXPHOS transcripts; [3],0.446
same,ROS (composite Z-score),reactive oxygen species; [3],−0.319
same,cyt c (composite Z-score),cytochrome c; Conc 20 μM,−0.069
same,GE-HTS (composite Z-score),OXPHOS gene expression; [3],0.772
same,MTT (composite Z-score),[1]; [3],−0.881
same,mitoOX (composite Z-score),mtOXPHOS transcripts; [3],1.332
same,ΔΨm (composite Z-score),[2]; [3],−0.388
same,Viability (composite Z-score),C2C12 myotubes; [3],−0.316
CC(C(=O)O)[C@H]1CCC2C3CC=C4C[C@@H](O)CC[C@]4(C)C3CC[C@@]21C (some centres unmarked),nucOX,nuOXPHOS transcripts; [4],0.793
same,ROS,reactive oxygen species; [4],0.315
same,cyt c,cytochrome c; [4],−0.309
same,GE-HTS,OXPHOS gene expression; [4],0.756
same,MTT,[1]; [4],−0.244
same,mitoOX,mtOXPHOS transcripts; [4],0.486
same,ΔΨm,[2]; [4],−0.402
same,Viability,C2C12 myotubes; [4],−0.295
CC(=O)O[C@H]1CC[C@]2(C)C(C[C@H](OC(C)=O)[C@]3(C)C4=CC(=O)OC(c5ccoc5)[C@@]4(C)CCC23)C1(C)C (some centres unmarked),nucOX (composite Z-score),nuOXPHOS transcripts; [3],−1.228
same,ROS (composite Z-score),reactive oxygen species; [3],1.848
same,cyt c (composite Z-score),cytochrome c; Conc 20 μM,0.161
same,GE-HTS (composite Z-score),OXPHOS gene expression; [3],−1.124
same,MTT (composite Z-score),[1]; [3],−0.810
same,mitoOX (composite Z-score),mtOXPHOS transcripts; [3],−0.653
same,ΔΨm (composite Z-score),[2]; [3],−0.208
same,Viability (composite Z-score),C2C12 myotubes; [3],−0.292
COc1ccc2c(c1)C1(C)CCC(=O)CC1CC2 (centres unmarked),nucOX (composite Z-score),nuOXPHOS transcripts; [3],0.140
same,ROS (composite Z-score),reactive oxygen species; [3],0.625
same,cyt c (composite Z-score),cytochrome c; Conc 20 μM,−0.239
same,GE-HTS (composite Z-score),OXPHOS gene expression; [3],0.129
same,MTT (composite Z-score),[1]; [3],−1.993
same,mitoOX (composite Z-score),mtOXPHOS transcripts; [3],0.061
same,ΔΨm (composite Z-score),[2]; [3],−0.939
same,Viability (composite Z-score),C2C12 myotubes; [3],−1.914
O=C(O)c1nc2cc(Cl)c(Cl)cc2nc1O,nucOX (composite Z-score),nuOXPHOS transcripts; [3],−0.313
same,ROS (composite Z-score),reactive oxygen species; [3],0.666
same,cyt c (composite Z-score),cytochrome c; Conc 20 μM,0.217
same,GE-HTS (composite Z-score),OXPHOS gene expression; [3],−0.320
same,MTT (composite Z-score),[1]; [3],−0.131
same,mitoOX (composite Z-score),mtOXPHOS transcripts; [3],−0.230
same,ΔΨm (composite Z-score),[2]; [3],−0.521
same,Viability (composite Z-score),C2C12 myotubes; [3],0.109
O=C(O)CCC/C=C\CC1COC(C(F)(F)F)OC1c1ccccc1O (centres unmarked),nucOX,nuOXPHOS transcripts; [4],0.169
same,ROS,reactive oxygen species; [4],0.713
same,cyt c,cytochrome c; [4],−0.437
same,GE-HTS,OXPHOS gene expression; [4],0.344
same,MTT,[1]; [4],−0.548
same,mitoOX,mtOXPHOS transcripts; [4],0.594
same,ΔΨm,[2]; [4],−0.087
same,Viability,C2C12 myotubes; [4],−0.413
CC1(C)CC2C1CC[C@]1(CBr)CCC3C(CC(=O)O)C(=O)O[C@@]32C1 (some centres unmarked),nucOX,nuOXPHOS transcripts; [5],−0.612
same,ROS,reactive oxygen species; [5],0.604
same,cyt c,cytochrome c; [5],0.551
same,GE-HTS,OXPHOS gene expression; [5],−1.029
same,MTT,[1]; [5],−0.892
same,mitoOX,mtOXPHOS transcripts; [5],−1.624
same,ΔΨm,[2]; [5],−0.084
same,Viability,C2C12 myotubes; [5],−0.498
COC(=O)[C@@H]1OC(=O)C2OC23[C@@]1(C)CCC1[C@]2(C)C(C[C@@H](O)[C@]13C)C(C)(C)[C@H](OC(C)=O)C[C@@H]2OC(C)=O (some centres unmarked),nucOX,nuOXPHOS transcripts; [6],−0.485
same,ROS,reactive oxygen species; [6],0.177
same,cyt c,cytochrome c; [6],1.004
same,GE-HTS,OXPHOS gene expression; [6],−0.376
same,MTT,[1]; [6],−0.427
same,mitoOX,mtOXPHOS transcripts; [6],−0.039
same,ΔΨm,[2]; [6],−0.579
same,Viability,C2C12 myotubes; [6],0.474
COC(=O)CCC(=O)O[C@H]1CC[C@@]2(C)[C@@H](CC[C@@H]3[C@@H]2C(=O)C(O)[C@]2(C)[C@@H]4[C@H](C[C@@H]32)O[C@]2(CC[C@@H](C)CO2)[C@H]4C)C1 (some centres unmarked),nucOX,nuOXPHOS transcripts; [7],0.054
same,ROS,reactive oxygen species; [7],0.918
same,cyt c,cytochrome c; [7],−0.005
same,GE-HTS,OXPHOS gene expression; [7],−0.063
same,MTT,[1]; [7],−1.387
same,mitoOX,mtOXPHOS transcripts; [7],−0.217
same,ΔΨm,[2]; [7],−0.760
same,Viability,C2C12 myotubes; [7],−0.315
COC(=O)c1cccc2cc(OC)c(OC)c(OC)c2c1=O,nucOX,nuOXPHOS transcripts; [6],0.287
same,ROS,reactive oxygen species; [6],0.800
same,cyt c,cytochrome c; [6],−0.229
same,GE-HTS,OXPHOS gene expression; [6],0.231
same,MTT,[1]; [6],−2.317
same,mitoOX,mtOXPHOS transcripts; [6],0.117
same,ΔΨm,[2]; [6],−0.254
same,Viability,C2C12 myotubes; [6],−0.836
NC(=O)c1ccc[n+]([C@@H]2O[C@H](COP(=O)([O-])OP(=O)(O)OC[C@H]3O[C@@H](n4cnc5c(N)ncnc54)[C@H](OP(=O)(O)O)[C@@H]3O)[C@@H](O)[C@H]2O)c1,nucOX,nuOXPHOS transcripts; [8],−0.307
same,ROS,reactive oxygen species; [8],−0.038
same,cyt c,cytochrome c; [8],0.101
same,GE-HTS,OXPHOS gene expression; [8],−0.424
same,MTT,[1]; [8],−1.286
same,mitoOX,mtOXPHOS transcripts; [8],−0.615
same,ΔΨm,[2]; [8],−0.582
same,Viability,C2C12 myotubes; [8],−0.562
O=C(O[C@@H]1Cc2c(O)cc(O)cc2O[C@@H]1c1cc(O)c(=O)c2c(O)c(O)cc([C@H]3Oc4cc(O)cc(O)c4C[C@H]3OC(=O)c3cc(O)c(O)c(O)c3)c2c1)c1cc(O)c(O)c(O)c1 [theaflavin digallate],nucOX,nuOXPHOS transcripts,0.948
same,ROS,reactive oxygen species,0.718
same,GE-HTS,OXPHOS gene expression,0.783
same,MTT,[1],−0.518
same,mitoOX,mtOXPHOS transcripts,0.275
same,ΔΨm,[2],−0.326
same,Viability,C2C12 myotubes,−1.408
cinnarazine,nucOX (composite Z-score),nuOXPHOS transcripts,0.338
same,ROS,reactive oxygen species,0.777
same,ROS (composite Z-score),reactive oxygen species,1.252
same,GE-HTS (composite Z-score),OXPHOS gene expression,0.362
same,MTT,[1],−1.003
same,MTT (composite Z-score),[1],−0.009
same,mitoOX (composite Z-score),mtOXPHOS transcripts,0.349
same,ΔΨm,[2],0.544
same,ΔΨm (composite Z-score),[2],−0.711
same,Viability,C2C12 myotubes,0.752
same,Viability (composite Z-score),C2C12 myotubes,−0.692
nonoxynol-9,nucOX,nuOXPHOS transcripts; [4],−1.114
same,ROS,reactive oxygen species; [4],0.528
same,GE-HTS,OXPHOS gene expression; [4],−0.872
same,MTT,[1]; [4],−1.228
same,mitoOX,mtOXPHOS transcripts; [4],−0.138
same,ΔΨm,[2]; [4],−1.484
same,Viability,C2C12 myotubes; [4],−0.209
